For this assay, the system named is MCF-7 cells. The assay can be described thus: Cell growth inhibition by [3H]thymidine incorporation, PRPC fractions and PRPC/IEC/RPC sub-fractions. It is filed as cell-based, human. The protocol:
Sub-confluent cells were serum-starved overnight and then were left untreated, i.e., no serum (−), were treated with serum (+) or with isolated V. amygdalina fractions 8, 9, 10, 14, 15, 16, 17, 18, 19, or 20 for 18 hours. Following incubation, all cells were pulsed with 1 μCi/ml [^3H]thymidine for an additional 4-6 hours as described in Example 2. The results represent the mean ±SD of three independent experiments. *P<0.05; **P<0.01.
Sub-confluent cells were serum-starved overnight and then were left untreated, i.e., no serum (−), were treated with serum (+) or with 100 μg/ml of V. amygdalina fractions 15, 16, 17, 18, 19, or 20 for 18 hours. Following incubation, all cells were pulsed with 1 μCi/ml [^3H]thymidine for an additional 4-6 hours as described in Example 2. The results represent the mean ±SD of three independent experiments. *P<0.05; **P<0.01.
Sub-confluent cells were serum-starved overnight and then were left untreated, i.e., no serum (−), were treated with serum (+) or with 100 ng/ml of V. amygdalina fractions 19-5-16, 19-5-17, or 19-5-13 for 18 hours. […]
Fraction 19 of the PRPC separation described in Example 3 was subjected to IEC fractionation as described in Example 4 to produce 10 IEC sub-fractions designated IEC sub-fractions 19-1 to 19-10. […] Finally, Two RPC sub-fractions, specifically 19-5-16 and 19-5-17, were further analyzed and shown to be pure peptides. […]
For orientation: Uptake of a labelled nucleoside into DNA is a usual measure of proliferation.

In the case of 19-5-16 (DTKDVVNVTG), the “inhibition of cell DNA synthesis” value (100 nanograms/ml, MCF-7, FIG. 5) worked out at 4 fold. For the same substance, the “potency in growth inhibition assay (in words)” value (RPC sub-fractions of 19-5, assay as in Example 6) was “exceptionally high potency”.
